Test results as given in patent publication US20250170121A1, “ISOQUINOLINONE COMPOUND, AND PREPARATION METHOD AND USE THEREFOR” (FUDAN UNIVERSITY, priority 2022, published 2025).

Key:
[1] = target: FABP3 (Homo sapiens, UniProt P05413); assay: FABP3 inhibition rate, ANS substrate competition method (illustrated by the FABP4 system); type: binding; details: compound 25 μM
Text: (§1) Considering that inhibition of FABP3 would cause myocardial function damage and bring potential safety issues, we tested the inhibitory activity of some compounds on FABP3. The activity test is illustrated by the example of the FABP4 activity test system as below.
(§2) Experimental principle and method: Once the free non-covalent fluorescent probe ANS binds to FABP4, the ANS fluorescence intensity will increase and its spectrum will be blue shifted. In this experiment, the inhibitory effect of the compound on FABP4 was evaluated by measuring the change in the ANS fluorescence signal value. For the FABP4 inhibitory activity test, the ANS substrate competition method was used, and we used the method of Kane and Bernlohr (E. Marr, M. Tardie, M. Carty, T. Brown Phillips, I. K. Wang, W. Soeller, X. Qiu, G. Karam, Expression, purification, crystallization and structure of human adipocyte lipid-binding protein (aP2). Acta Crystallogr., Sect. F: Struct. Biol. Cryst. Commun. 62 (2006) 1058-1060.). Human FABP4 with a His tag was expressed in the BL21 (DE3) strain and then purified using a Ni column with a His tag to generate the protein. In the detection system, the concentration of 1,8-ANS substrate was 10 μM, the final concentration of FABP4 was 10 μM, and then the compound prepared by the present invention was added at the required concentration for incubation for 3 minutes, and finally the fluorescence signal was detected at an excitation wavelength (EX) of 370 nm/emission wavelength (EM) of 470 nm. The inhibition rate (%) of the test sample on FABP4 was calculated according to the fluorescence absorption value of the system. The inhibition rate (%) was calculated according to the following equation: […]
(§3) FX represents the fluorescence value (fluorescence, F) of the system measured in the presence of compound x;
(§4) Fbackground represents the fluorescence value of the fluorescent substrate ANS;
(§5) F0% represents the fluorescence value of the system when the inhibition rate is 0%, that is, when no compound was added.

[2] = target: FABP5 (Homo sapiens, UniProt Q01469); assay: FABP5 inhibition rate, ANS substrate competition method (illustrated by the FABP4 system); type: binding; details: compound 25 μM
[3] = target: T1, Human FABP4 (Homo sapiens, UniProt P15090); assay: FABP4 inhibition rate, ANS substrate competition (fluorescence) method; type: binding; details: compound 25 μM; 10 μM 1,8-ANS, 10 μM FABP4
T1 construct: His tag; made in house; host or cells: E. coli BL21 (DE3)
Text: as §1, §2, §3, §4, §5

[4] = test system: MCP-1 secretion in THP-1 cells; assay: MCP-1 secretion in LPS-stimulated THP-1 monocyte-derived macrophages (ELISA); type: cell-based; details: 25 μM, 10 μM and 5 μM; 18 h incubation, 100 ng/ml LPS 6 h; FIG. 2
Text: (§6) In FIG. 2A to FIG. 2C, the vertical axis represents the amount (ng) of MCP-1 contained in each mg of cell protein: in FIG. 2D, the vertical axis represents the relative concentration of MCP-1 (ng/mg cellular protein % LPS). Wherein, Control represents blank control treatment, LPS represents lipopolysaccharide treatment, BMS309403 represents inhibitor positive control treatment, RO6806051 (RO) represents lead compound treatment, and Y2, Y3, Y15, Y16 and Y18 represent treatments with compounds Y2, Y3, Y15, Y16 and Y18 prepared in the present invention, respectively.
(§7) Effects of the compounds on monocyte chemoattractant factor-1 (MCP-1) and interleukin-6 (IL-6) in THP-1 monocyte-derived macrophage.
(§8) First, monocytic cell line THP-1 in logarithmic growth phase was plated on a 96-well plate at a cell density of 5*10^5/ml; then 100 nM phorbol myristate ester (PMA) was added to induce the cells for 24 hours to differentiate into macrophages; then the cells were washed once or twice with phosphate buffered saline (PBS), and different concentrations of compounds (5, 10, 25 μM) were added for incubation for 18 hours; finally, after 6 hours of stimulation with 100 ng/ml lipopolysaccharide (LPS), the supernatant was collected and diluted to a certain multiple and the contents of MCP-1 and IL-6 were detected using enzyme-linked immunosorbent assay (ELISA), and cell protein was collected and the protein concentration was measured by BCA method for calibration.

[5] = test system: IL-6 secretion in THP-1 cells; assay: IL-6 secretion in LPS-stimulated THP-1 monocyte-derived macrophages (ELISA); type: cell-based; details: FIG. 3
Text: as §6, with “3,” for “2A to FIG. 2C,”, “protein.” for “protein: in FIG. 2D, the vertical axis represents the relative concentration of MCP-1 (ng/mg cellular protein % LPS).”, “Control (Con)” for “Control”
as §7, §8

T1 sequence (P15090 whole entry): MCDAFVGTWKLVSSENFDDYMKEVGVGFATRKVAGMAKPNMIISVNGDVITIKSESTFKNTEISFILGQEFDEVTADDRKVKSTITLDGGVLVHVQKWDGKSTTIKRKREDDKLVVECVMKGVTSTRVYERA
Sequence of FABP3 (P05413 whole entry): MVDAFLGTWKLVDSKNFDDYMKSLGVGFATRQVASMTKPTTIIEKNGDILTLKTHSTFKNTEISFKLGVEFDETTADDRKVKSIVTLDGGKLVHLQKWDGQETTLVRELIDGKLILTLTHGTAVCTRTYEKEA
Sequence of FABP5 (Q01469 whole entry): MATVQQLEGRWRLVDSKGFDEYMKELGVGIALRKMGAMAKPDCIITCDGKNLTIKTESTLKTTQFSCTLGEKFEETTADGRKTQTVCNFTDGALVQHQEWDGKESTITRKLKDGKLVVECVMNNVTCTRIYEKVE

Question: How did the inhibition at 25 µM [1] turn out when O=C(O)c1c(-c2ccccc2)c2cc(Br)ccc2c(=O)n1C1CCCC1 [Compound Y10, 6-Bromo-2-cyclopentyl-1-oxo-4-phenyl-1,2-dihydroisoquinoline-3-carboxylic Acid] was run?
Answer: 57%

Question: What about the inhibition at 25 µM [2] of the same molecule?
Answer: 58%

Question: What about the inhibition at 25 µM [3] of the same molecule?
Answer: 95%

Question: How did the inhibition at 25 µM [1] turn out when Cc1nn(C)cc1-c1c(C(=O)O)n(C2CCCC2)c(=O)c2ccc(Cl)cc12 [Compound Y22, 6-Chloro-2-cyclopentyl-4-(1,3-dimethyl-1H-pyrazol-4-yl)-1-oxo-1,2-dihydroisoquinoline-3-carboxylic Acid] was run?
Answer: 1%

Question: What about the inhibition at 25 µM [2] of the same molecule?
Answer: 36%

Question: And the inhibition at 25 µM [3]?
Answer: 36%

Question: What does the source list for O=C(O)c1c(-c2ccccc2)c2cc(Cl)ccc2c(=O)n1N1CCCCC1 [Compound Y9, 6-Chloro-1-oxo-4-phenyl-2-(piperidin-1-yl)-1,2-dihydroisoquinoline-3-carboxylic Acid]?
Answer: inhibition at 25 µM [1]: 59%; inhibition at 25 µM [2]: 72%; inhibition at 25 µM [3]: 95%

Question: With O=C(O)c1c(-c2ccc(C(F)(F)F)cc2)c2cc(Cl)ccc2c(=O)n1C1CCCC1 [Compound Y19, 6-Chloro-2-cyclopentyl-1-oxo-4-(4-(trifluoromethyl)phenyl)-1,2-dihydroisoquinoline-3-carboxylic Acid] as the molecule, how does the inhibition at 25 µM [1] read?
Answer: 3%

Question: And the inhibition at 25 µM [2]?
Answer: 22%

Question: And the inhibition at 25 µM [3]?
Answer: 14%

Question: What does the source list for O=C(O)c1c(-c2ccc(F)c(Cl)c2)c2cc(Cl)ccc2c(=O)n1C1CCCC1 [Compound Y18, 6-Chloro-4-(3-chloro-4-fluorophenyl)-2-cyclopentyl-1-oxo-1,2-dihydroisoquinoline-3-carboxylic Acid]?
Answer: inhibition at 25 µM [1]: 16%; inhibition at 25 µM [2]: 46%; inhibition at 25 µM [3]: 91%; secretion of inflammatory factor MCP-1 in THP-1 mononuclear macrophages [4]: could reduce the secretion of inflammatory factor MCP-1; secretion of inflammatory factor IL-6 in THP-1 mononuclear macrophages ([5]; 25 μM): could reduce the secretion of inflammatory factor IL-6; IL-6 secretion, tendency (no concentration stated) [5]: tendency to reduce IL-6 secretion but with no statistical difference

Question: How did the inhibition at 25 µM [1] turn out when Cc1ccc2c(=O)n(C3CCCC3)c(C(=O)O)c(-c3ccccc3)c2c1 [Compound Y14, 2-Cyclopentyl-6-methyl-1-oxo-4-phenyl-1,2-dihydroisoquinoline-3-carboxylic Acid] was run?
Answer: 26%

Question: What about the inhibition at 25 µM [2] of the same molecule?
Answer: 55%

Question: And the inhibition at 25 µM [3]?
Answer: 90%

Question: With O=C(O)c1c(-c2ccccc2)c2ccccc2c(=O)n1C1CCCC1 [Compound Y12, 2-Cyclopentyl-1-oxo-4-phenyl-1,2-dihydroisoquinoline-3-carboxylic Acid] as the molecule, how does the inhibition at 25 µM [2] read?
Answer: 25%

Question: And the inhibition at 25 µM [3]?
Answer: 58%

Question: Which results are given for O=C(O)c1c(-c2ccc3c(c2)CCO3)c2cc(Cl)ccc2c(=O)n1C1CCCC1 [Compound Y20, 6-Chloro-2-cyclopentyl-4-(2,3-dihydrobenzofuran-5-yl)-1-oxo-1,2-dihydroisoquinoline-3-carboxylic Acid]?
Answer: inhibition at 25 µM [2]: 25%; inhibition at 25 µM [3]: 32%

Question: Which inhibition at 25 µM [1] does the source give for O=C(O)c1c(-c2ccccc2)c2cc(Cl)ccc2c(=O)n1C1CCOCC1 [Compound Y4, 6-Chloro-1-oxo-4-phenyl-2-(tetrahydro-2H-pyran-4-yl)-1,2-dihydroisoquinoline-3-carboxylic Acid] here?
Answer: 14%

Question: What about the inhibition at 25 µM [2] of the same molecule?
Answer: 50%

Question: And the inhibition at 25 µM [3]?
Answer: 71%

Question: For O=C(O)c1c(-c2ccccc2)c2cc(Cl)c(Cl)cc2c(=O)n1C1CCCC1 [Compound Y11, 6,7-Dichloro-2-cyclopentyl-1-oxo-4-phenyl-1,2-dihydroisoquinoline-3-carboxylic Acid], which inhibition at 25 µM [1] is on record?
Answer: 48%

Question: And the inhibition at 25 µM [2]?
Answer: 41%

Question: And the inhibition at 25 µM [3]?
Answer: 77%

Question: How did the inhibition at 25 µM [1] turn out when O=C(O)c1c(-c2ccc(F)cc2)c2cc(Cl)ccc2c(=O)n1C1CCCC1 [Compound Y15, 6-Chloro-2-cyclopentyl-4-(4-fluorophenyl)-1-oxo-1,2-dihydroisoquinoline-3-carboxylic Acid] was run?
Answer: 27%

Question: And the inhibition at 25 µM [2]?
Answer: 52%

Question: What about the inhibition at 25 µM [3] of the same molecule?
Answer: 91%

Question: And the “secretion of inflammatory factor MCP-1 in THP-1 mononuclear macrophages” value [4]?
Answer: could reduce the secretion of inflammatory factor MCP-1

Question: And the “IL-6 secretion, tendency (no concentration stated)” value [5]?
Answer: tendency to reduce IL-6 secretion but with no statistical difference

Question: Which results are given for O=C(O)c1c(-c2ccccc2)c2cc(Cl)ccc2c(=O)n1C1CCCCC1 [Compound Y1, 6-Chloro-2-cyclohexyl-1-oxo-4-phenyl-1,2-dihydroisoquinoline-3-carboxylic Acid]?
Answer: inhibition at 25 µM [1]: 29%; inhibition at 25 µM [2]: 50%; inhibition at 25 µM [3]: 70%

Question: With O=C(O)c1c(-c2ccc(CO)cc2)c2cc(Cl)ccc2c(=O)n1C1CCCC1 [Compound Y17, 6-Chloro-2-cyclopentyl-4-(4-(hydroxymethyl)phenyl)-1-oxo-1,2-dihydroisoquinoline-3-carboxylic Acid] as the molecule, how does the inhibition at 25 µM [2] read?
Answer: 14%

Question: What about the inhibition at 25 µM [3] of the same molecule?
Answer: 1%

Question: Which results are given for O=C(O)c1c(-c2ccccc2)c2cc(F)ccc2c(=O)n1C1CCCC1 [Compound Y13, 2-Cyclopentyl-6-fluoro-1-oxo-4-phenyl-1,2-dihydroisoquinoline-3-carboxylic Acid]?
Answer: inhibition at 25 µM [1]: 11%; inhibition at 25 µM [2]: 43%; inhibition at 25 µM [3]: 89%

Question: How did the inhibition at 25 µM [1] turn out when O=C(O)c1c(-c2ccccc2)c2cc(Cl)ccc2c(=O)n1C1CCCCCC1 [Compound Y7, 6-Chloro-2-cycloheptyl-1-oxo-4-phenyl-1,2-dihydroisoquinoline-3-carboxylic Acid] was run?
Answer: 18%

Question: What about the inhibition at 25 µM [2] of the same molecule?
Answer: 57%

Question: What about the inhibition at 25 µM [3] of the same molecule?
Answer: 78%

Question: How did the inhibition at 25 µM [2] turn out when O=C(O)c1c(-c2ccccc2)c2cc(Cl)ccc2c(=O)n1-c1ccc(Cl)cc1 [Compound Y8, 6-Chloro-2-(4-chlorophenyl)-1-oxo-4-phenyl-1,2-dihydroisoquinoline-3-carboxylic Acid] was run?
Answer: 1%

Question: And the inhibition at 25 µM [3]?
Answer: 35%

Question: With O=C(O)c1c(-c2ccccc2)c2cc(Cl)ccc2c(=O)n1C1CC1 [Compound Y5, 6-Chloro-2-cyclopropyl-1-oxo-4-phenyl-1,2-dihydroisoquinoline-3-carboxylic Acid] as the molecule, how does the inhibition at 25 µM [1] read?
Answer: 82%

Question: And the inhibition at 25 µM [2]?
Answer: 43%

Question: And the inhibition at 25 µM [3]?
Answer: 88%

Question: O=C(O)c1c(-c2ccc(O)cc2)c2cc(Cl)ccc2c(=O)n1C1CCCC1 [Compound Y16, 6-Chloro-2-cyclopentyl-4-(4-hydroxyphenyl)-1-oxo-1,2-dihydroisoquinoline-3-carboxylic Acid] was tested. Which inhibition at 25 µM [1] did it give?
Answer: 28%

Question: What about the inhibition at 25 µM [2] of the same molecule?
Answer: 52%

Question: And the inhibition at 25 µM [3]?
Answer: 92%

Question: What about the “secretion of inflammatory factor MCP-1 in THP-1 mononuclear macrophages” value [4] of the same molecule?
Answer: could reduce the secretion of inflammatory factor MCP-1

Question: Which results are given for O=C(O)c1c(-c2cccnc2)c2cc(Cl)ccc2c(=O)n1C1CCCC1 [Compound Y21, 6-Chloro-2-cyclopentyl-1-oxo-4-(pyridin-3-yl)-1,2-dihydroisoquinoline-3-carboxylic Acid]?
Answer: inhibition at 25 µM [1]: 9%; inhibition at 25 µM [2]: 31%; inhibition at 25 µM [3]: 76%

Question: How did the inhibition at 25 µM [1] turn out when O=C(O)c1c(-c2ccccc2)c2cc(Cl)ccc2c(=O)n1C1CCC1 [Compound Y6, 6-Chloro-2-cyclobutyl-1-oxo-4-phenyl-1,2-dihydroisoquinoline-3-carboxylic Acid] was run?
Answer: 81%

Question: And the inhibition at 25 µM [2]?
Answer: 60%

Question: And the inhibition at 25 µM [3]?
Answer: 94%
